The results in this text go back to paper PMC5619143 (Future Microbiology, 2017).

In this assay the test system is LdtMav2. Briefly: nitrocefin hydrolysis, absorbance at […] nm, Michaelis-Menten fit. The class given is biochemical, Mycobacterium avium. To be noted: pH 6.5, 25 °C.

With `O=C(Cc1cccs1)N[C@@H]1C(=O)N2C(C(=O)O)=C(/C=C/c3ccc([N+](=O)[O-])cc3[N+](=O)[O-])CS[C@H]12` [nitrocefin], the Km (in general, the concentration of substrate that gives half-maximal velocity) was determined as 75 µM.
